Results on one molecule are retold here after patent US20130005802A1, “TREATMENT OF WNT/FRIZZLED-RELATED DISEASES” (priority 2009, published 2013).

pIC50: −log10 of the molar value. Where two headings read alike, the source gives them in different places.

One data set relates to CaCO2 cells. The data set is described as follows: MTT assay, CaCO2. Particulars: for pIC50: Homo sapiens, Caco-2, 72 h. The format is cell-based. The procedure:
AsPC-1 tumor cells were cultured with T cells at a 1:5 ratio for 7 days in the presence of MEDI-565 or Cont BiTE (100 ng/mL). On day 7, floating cells were discarded and only adherent AsPC-1 cells were harvested with 0.05% trypsin/EDTA and washed with PBS three times. 1×10^4 AsPC-1 tumor cells were added to each well of 96 well flat bottom plates in 200 μL of complete RPMI1640 medium. The cells were allowed to adhere to the plates overnight at 37° C. (day 0) and were further incubated for 1, 2, 4 or 7 days. 20 μL of 10×MTT (3-[4,5-dimethylthiazol-2-yl]-2,5-diphenyl-tetrazolium bromide, 5 mg/mL) solution was added to each well, and incubated at 37° C. for 2 hr. The adherent cells were lysed with 150 μL of dimethyl sulfoxide (DMSO) and the optical density (OD) at 550 nm was measured.
Colorectal cancer cell lines were incubated in 96-well flat-bottomed plates at 5,000 cells per well in 200 μL of complete RPMI1640 medium. The cells were allowed to adhere to the plates overnight at 37° C. (day 0). […] Then 20 μL of 10×MTT solution was added to each well and incubated at 37° C. for 2 hr. The adherent cells were lysed with 150 μL of DMSO, and then optical density (OD) at 562 nm was measured. DMSO or culture medium was used as a control.
MTT assay was performed at each time point.
An MTT assay was performed after 72 hr incubation. After cell lysis with DMSO, the optical density (OD) at 562 nm was measured.
For orientation: Formazan colour is commonly taken as a measure of viable cells.

The subject of data set [1] is peripheral blood mononuclear cells (PBMCs). The format is cell-based. Particulars: human, 3 days. As for the experimental part: After 3 days incubation, all cells were harvested with 0.05% trypsin/EDTA and spun down by centrifugation. Cells were labeled with biotin-conjugated Annexin V, and then stained with 7-AAD and Streptavidin-APC. Samples were acquired by FACSCalibur machine (BD Bioscience) and analyzed with CellQuest software. Cells were analyzed for expression of Annexin V as a marker of apoptosis.
Annexin V may be used as a marker for apoptosis and other forms of cell death. […] After 3 days of incubation, all cells were harvested with 0.05% trypsin/EDTA, labeled with biotin-conjugated Annexin V, and then stained with 7-AAD and streptavidin-APC. Samples were acquired by FACSCalibur, and percentages of annexin V-positive cells were analyzed and plotted as shown in FIG. 11. Cells were analyzed for expression of Annexin V as a marker of apoptosis.

A further data set deals with CRC039 tumors. The data set is described as follows: In vivo anti-tumor effect, CRC039 explant tumors. Also noted: species or system NOD/SCID mice. As to conditions: 10, 100 or 200 mg/kg gavage, 6 days per week, 3 weeks. As for the experimental part:
HCT116 colon cancer cells were harvested from flasks with 0.05% Trypsin/EDTA, washed with PBS, and resuspended with Hanks buffered solution at 5×10^6 cells/100 μL concentration. CRC explants (CRC039) cultured in vitro were harvested with the same procedure, and mixed with equal volume of Matrigel to make 1×10^6 cells/100 μL concentration. A hundred μL of cell suspension was inoculated to the flank of NOD/SCID mice 4 days before the start of treatment. […] Tumor size was measured 3 times a week until mice were sacrificed.
HCT116 colon cancer cells were harvested from flasks with 0.05% Trypsin/EDTA and resuspended with Hanks buffered solution at 5×10^6 cells/100 μL concentration. CRC explants (CRC039) cultured in vitro were harvested with the same procedure and mixed with equal volume of Matrigel to make 1×10^6 cells/100 μL concentration. The cell suspension (100 μL) was inoculated into the flank of NOD/SCID mice 4 days before the start of treatment. […] Initially, 2 weeks of treatment was planned for both HCT116 and CRC039. However, treatment was extended to 3 weeks for CRC039 cells because the […] grew much slower than the HCT116 cell line. Tumor size was measured 3 times a week until mice were euthanized.

In general, pIC50 refers to the IC50 on a negative log10 scale, so that one unit is a factor of ten.

On to `O=C(Nc1ccc([N+](=O)[O-])cc1Cl)c1cc(Cl)ccc1O` [niclosamide], for which the “cytotoxic effect compared with 10 μM oxaliplatin” value in the data set on CaCO2 cells (2 μM, 72 hr) was “stronger cytotoxic effect”. Besides, in the data set on CaCO2 cells (0.4, 2, 10 μM, 72 hr), the “proliferation (MTT, OD 562 nm)” value is reported as “less proliferation”. For the same molecule, the “% proliferation over time” value in the data set with CaCO2 cells (0.4, 2, 10 μM, 24-96 hr) is “sensitive”. Moreover, the results for the pIC50 with CaCO2 cells (read-out: IC50 of niclosamide (MTT)) and with CaCO2 cells (read-out: IC50 of niclosamide (MTT) with oxaliplatin) were 6.00 and 6.30, respectively. Further, the “doses at which apoptosis was shown (annexin V)” value in data set [1] was in the range of 10 to 20 µM. Besides, in the data set with CRC039 tumors, the tumor growth result is “significantly inhibited the growth”.
